Experimental data from PMC8972088 (Bioorganic & medicinal chemistry, 2021).

Tests used:
GSK-3β [1] = target: T1, GSK-3β (Homo sapiens, UniProt P49841); assay: Jump dilution assay; format: biochemical; details: 3-hour pre-incubation with 50 nM GSK-3β, 100-fold dilution; 2 mM ATP
GSK-3β [2] = target: T1, GSK-3β; assay: PhosphoSens real-time kinase assay, wild type GSK-3β; format: biochemical; details: for increase in potency with preincubation: 3-hour preincubation vs no preincubation
GSK-3β [3] = target: T1, GSK-3β; assay: GSK-3β kinase assay in presence of reducing agents; details: inhibitor 10 μM; for effect of reducing agents on potency: 2 mM DTT, GSH or TCEP, 84 min
KDR (VEGFR2) = KDR (VEGFR2) (Homo sapiens, UniProt P35968); assay: Kinase panel screen, Z'-LYTE; format: biochemical; details: read-out: Inhibition KDR (VEGFR2)
Chain of KDR (VEGFR2) (P35968 20-1356): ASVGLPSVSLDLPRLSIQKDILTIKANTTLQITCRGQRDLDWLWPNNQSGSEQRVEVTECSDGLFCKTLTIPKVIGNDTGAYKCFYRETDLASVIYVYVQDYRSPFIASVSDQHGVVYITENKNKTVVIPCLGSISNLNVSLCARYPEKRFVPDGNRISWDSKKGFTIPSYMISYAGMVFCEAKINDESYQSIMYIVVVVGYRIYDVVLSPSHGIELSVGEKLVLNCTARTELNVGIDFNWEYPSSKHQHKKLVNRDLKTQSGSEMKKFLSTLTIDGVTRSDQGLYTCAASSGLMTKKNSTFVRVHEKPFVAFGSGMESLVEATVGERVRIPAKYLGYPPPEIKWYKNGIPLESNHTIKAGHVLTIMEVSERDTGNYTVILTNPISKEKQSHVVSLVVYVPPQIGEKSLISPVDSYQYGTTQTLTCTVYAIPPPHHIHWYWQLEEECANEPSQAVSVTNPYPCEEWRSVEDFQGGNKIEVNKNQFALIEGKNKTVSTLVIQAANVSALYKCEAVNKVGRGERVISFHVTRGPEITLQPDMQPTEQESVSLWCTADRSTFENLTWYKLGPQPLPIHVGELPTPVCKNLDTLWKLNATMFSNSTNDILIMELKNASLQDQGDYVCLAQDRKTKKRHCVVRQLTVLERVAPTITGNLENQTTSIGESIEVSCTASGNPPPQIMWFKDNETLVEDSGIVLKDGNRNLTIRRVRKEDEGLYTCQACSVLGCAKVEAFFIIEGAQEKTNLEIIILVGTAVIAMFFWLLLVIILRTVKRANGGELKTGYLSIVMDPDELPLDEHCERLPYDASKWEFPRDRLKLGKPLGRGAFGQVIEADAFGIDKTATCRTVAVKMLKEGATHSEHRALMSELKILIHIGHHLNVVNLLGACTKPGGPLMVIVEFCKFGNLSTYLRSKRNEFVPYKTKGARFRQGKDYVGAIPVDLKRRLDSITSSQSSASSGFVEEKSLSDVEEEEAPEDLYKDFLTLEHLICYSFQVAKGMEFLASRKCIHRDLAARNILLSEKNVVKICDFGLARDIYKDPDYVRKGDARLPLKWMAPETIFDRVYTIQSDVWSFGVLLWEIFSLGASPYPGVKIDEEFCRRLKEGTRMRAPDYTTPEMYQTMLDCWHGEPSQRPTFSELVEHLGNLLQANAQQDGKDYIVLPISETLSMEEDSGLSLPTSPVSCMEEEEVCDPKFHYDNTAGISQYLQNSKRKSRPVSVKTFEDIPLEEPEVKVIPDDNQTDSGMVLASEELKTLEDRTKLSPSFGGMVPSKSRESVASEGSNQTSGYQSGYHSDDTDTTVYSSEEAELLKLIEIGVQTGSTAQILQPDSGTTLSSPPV

[4] = Reaction of COB-187 with ethanethiol and tributylphosphine in THF; format: physicochemical; details: room temperature to reflux, HPLC and 1H-NMR
GSK-3β C199A mutant = GSK-3β C199A mutant (Homo sapiens, UniProt P49841, C199A); assay: PhosphoSens kinase assay, GSK-3β C199A mutant; format: biochemical; details: C199A vs wild type GSK-3β
Chain of GSK-3β C199A mutant (P49841 whole entry C199A): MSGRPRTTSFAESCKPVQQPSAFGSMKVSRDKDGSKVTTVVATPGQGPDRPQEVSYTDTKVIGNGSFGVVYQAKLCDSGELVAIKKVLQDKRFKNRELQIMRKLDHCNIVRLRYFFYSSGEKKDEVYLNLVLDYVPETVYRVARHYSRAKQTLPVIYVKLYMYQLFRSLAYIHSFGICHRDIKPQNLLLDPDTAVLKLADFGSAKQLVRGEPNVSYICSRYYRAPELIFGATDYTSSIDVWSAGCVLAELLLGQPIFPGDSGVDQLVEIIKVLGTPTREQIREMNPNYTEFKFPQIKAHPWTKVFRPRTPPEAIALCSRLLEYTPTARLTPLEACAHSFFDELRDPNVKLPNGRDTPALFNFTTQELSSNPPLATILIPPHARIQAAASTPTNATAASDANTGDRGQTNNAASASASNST

MAPKAPK5 (PRAK) = target: T2, MAPKAPK5 (PRAK) (Homo sapiens, UniProt Q8IW41); assay: Kinase panel screen, Z'-LYTE; format: biochemical; details: read-out: Inhibition MAPKAPK5 (PRAK), 2 μM COB-187, ATP Km, ±SD n=2
T2 sequence (Q8IW41 1-473): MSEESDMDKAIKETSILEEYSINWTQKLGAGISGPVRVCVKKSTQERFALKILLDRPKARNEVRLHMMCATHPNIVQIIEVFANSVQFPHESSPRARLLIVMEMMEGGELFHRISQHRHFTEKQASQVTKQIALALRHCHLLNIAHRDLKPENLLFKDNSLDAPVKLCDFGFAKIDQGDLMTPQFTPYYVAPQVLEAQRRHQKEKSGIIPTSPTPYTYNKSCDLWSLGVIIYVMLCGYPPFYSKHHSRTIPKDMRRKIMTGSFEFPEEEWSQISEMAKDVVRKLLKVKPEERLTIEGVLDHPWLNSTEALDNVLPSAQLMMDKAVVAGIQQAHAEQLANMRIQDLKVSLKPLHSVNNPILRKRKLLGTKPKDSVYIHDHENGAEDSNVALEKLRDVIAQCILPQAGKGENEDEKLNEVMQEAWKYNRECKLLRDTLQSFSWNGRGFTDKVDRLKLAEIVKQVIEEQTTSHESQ

T1 sequence (P49841 whole entry): as the sequence (P49841 whole entry C199A) above, with A199C counted along it

increase in potency with preincubation (GSK-3β [2]) | effect of DTT or GSH on potency (GSK-3β [3]; 2 mM DTT or GSH) | effect of TCEP on potency (GSK-3β [3]; 2 mM TCEP) | inhibition at 2 µM (KDR (VEGFR2)) | reaction with ethanethiol and tributylphosphine [4] | decrease in potency for the mutant versus wild type (GSK-3β C199A mutant) | average k4 from fit of kobs vs concentration to Eq. 8 (induced-fit) (GSK-3β [2]; average of five replicates, ± SD) | inhibition at 2 µM (MAPKAPK5 (PRAK)) | Structure (SMILES) | recovery of GSK-3β activity upon jump dilution (GSK-3β [1]) | effect of reducing agents on potency (GSK-3β [3])
no significant increase |  |  |  |  |  |  |  | O=C1Cc2c([nH]c3ccc([N+](=O)[O-])cc23)-c2ccccc2N1 [Alsterpaullone] | recovered most of its activity upon dilution | 
 | not significantly altered | significant but modest reduction |  |  |  |  |  | COc1ccc(CNC(=O)Nc2ncc([N+](=O)[O-])s2)cc1 [AR-A014418] |  | 
< 4 fold |  |  | 8 ± 8.2% | no evidence of any reaction | > 300 fold | 2.9 × 10^−4 (±4.8 × 10^−4 SD) 1/min | ~64% | OC1(c2ccccc2)CSC(=S)N1Cc1ccncc1 (centres unmarked) [COB-187, 4-hydroxy-4-phenyl-3-(pyridin-4-ylmethyl)thiazolidine-2-thione] |  | significantly diminished

Structure (SMILES) | increase in potency with preincubation (GSK-3β [2]) | effect of DTT or GSH on potency (GSK-3β [3]; 2 mM DTT or GSH) | effect of TCEP on potency (GSK-3β [3]; 2 mM TCEP) | inhibition at 2 µM (KDR (VEGFR2)) | reaction with ethanethiol and tributylphosphine [4] | decrease in potency for the mutant versus wild type (GSK-3β C199A mutant) | average k4 from fit of kobs vs concentration to Eq. 8 (induced-fit) (GSK-3β [2]; average of five replicates, ± SD) | inhibition at 2 µM (MAPKAPK5 (PRAK)) | recovery of GSK-3β activity upon jump dilution (GSK-3β [1]) | effect of reducing agents on potency (GSK-3β [3])
COc1cc(O)c2c(c1)[C@H]1O[C@@H]1C[C@H](O)[C@H](O)C(=O)/C=C\C[C@H](C)OC2=O [Hypothemycin] | ~ 17 fold |  |  |  |  |  |  |  | did not recover activity upon jump dilution | significantly diminished
